Data on 22 molecules can be found in patent US8258151B2, “3-aminoimidazo [1,2-A] pyridine derivatives as SGLT inhibitors” (Merck Patent GmbH, priority 2006, dated 2012).

Test [1] deals with T1, SGLT1 (Homo sapiens, UniProt P13866).
T1 construct: expressed in transfected cells
T1 sequence (P13866 1-664): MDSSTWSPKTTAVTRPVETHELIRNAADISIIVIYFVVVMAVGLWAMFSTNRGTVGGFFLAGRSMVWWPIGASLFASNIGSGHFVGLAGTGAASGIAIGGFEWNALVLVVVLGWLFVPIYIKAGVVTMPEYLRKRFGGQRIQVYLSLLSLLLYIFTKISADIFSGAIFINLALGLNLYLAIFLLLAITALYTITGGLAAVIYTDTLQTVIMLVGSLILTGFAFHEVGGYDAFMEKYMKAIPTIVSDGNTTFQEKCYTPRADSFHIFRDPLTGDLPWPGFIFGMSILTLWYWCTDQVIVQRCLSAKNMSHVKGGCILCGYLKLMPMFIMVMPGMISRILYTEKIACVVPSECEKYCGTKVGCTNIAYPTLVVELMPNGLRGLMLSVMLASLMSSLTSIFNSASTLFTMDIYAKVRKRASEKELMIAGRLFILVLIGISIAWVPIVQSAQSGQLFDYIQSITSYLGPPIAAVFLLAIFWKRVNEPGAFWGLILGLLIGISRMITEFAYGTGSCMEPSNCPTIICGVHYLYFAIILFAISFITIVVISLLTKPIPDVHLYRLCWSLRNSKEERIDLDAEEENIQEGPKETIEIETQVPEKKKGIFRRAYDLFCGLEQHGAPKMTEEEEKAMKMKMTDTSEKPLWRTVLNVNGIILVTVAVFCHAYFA
Briefly: SGLT1 activity measurement: 14C-AMG uptake in BHK cells transfected with SGLT1. The class given is cell-based. The following applies: AMG 50 μM, 37° C., 90 min. An outline of the steps:
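BHK21 cells stably transfected with human SLC5A1 were incubated with 14C-AMG (added solution at 50 μM) ± compound for 90 min at 37 °C. The buffer was 140 mM NaCl, HEPES/Tris, pH 7.4. Lysed-cell radioactivity was counted by scintillation, and non-specific uptake was measured in sodium-free sucrose buffer.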

Test [2] addresses T2, SGLT2 (Homo sapiens, UniProt P31639).
T2 construct: expressed in transfected cells
T2 sequence (P31639 1-672): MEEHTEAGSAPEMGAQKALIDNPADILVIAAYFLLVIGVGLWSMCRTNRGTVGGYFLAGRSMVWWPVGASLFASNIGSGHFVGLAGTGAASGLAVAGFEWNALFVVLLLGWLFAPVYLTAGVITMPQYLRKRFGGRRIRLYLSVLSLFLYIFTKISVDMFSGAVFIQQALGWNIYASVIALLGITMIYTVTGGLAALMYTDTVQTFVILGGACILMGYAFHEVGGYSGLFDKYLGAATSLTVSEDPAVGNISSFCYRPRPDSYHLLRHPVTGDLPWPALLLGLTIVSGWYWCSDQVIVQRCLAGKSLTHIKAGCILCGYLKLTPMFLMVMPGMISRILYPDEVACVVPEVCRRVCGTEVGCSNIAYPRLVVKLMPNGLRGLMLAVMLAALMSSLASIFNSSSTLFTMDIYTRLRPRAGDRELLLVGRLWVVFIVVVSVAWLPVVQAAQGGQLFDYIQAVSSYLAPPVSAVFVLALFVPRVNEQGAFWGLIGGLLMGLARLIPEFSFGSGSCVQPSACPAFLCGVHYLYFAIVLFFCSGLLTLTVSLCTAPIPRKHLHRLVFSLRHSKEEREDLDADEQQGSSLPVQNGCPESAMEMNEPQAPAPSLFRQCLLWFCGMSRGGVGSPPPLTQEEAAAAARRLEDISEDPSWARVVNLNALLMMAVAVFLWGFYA
The test is described as follows: SGLT2 activity measurement: 14C-AMG uptake in BHK cells transfected with SGLT2. Conditions: AMG 2 mM, 37° C., 90 min. Format: cell-based. An outline of the steps: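 BHK21 cells stably expressing human SGLT2 took up 14C-AMG (added as 2 mM solution) ± compound for 90 min at 37 °C in Na+-containing HEPES/Tris buffer, pH 7.4. Uptake was measured by scintillation counting after lysis. Non-specific uptake was defined in sodium-free sucrose buffer.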

A word on the IC50: it is the concentration that inhibits the measured activity by half.

Turning to `CCc1cc(OCCOC)cc(OCC(N)=O)c1-c1nc2ccc(F)cn2c1Nc1c(C)cccc1C` [Compound A187, 2-[2-(Aminocarbonylmethoxy)-4-(2-methoxy-ethoxy)-6-ethylphenyl]-3-(2,6-dimethylphenyl-amino)-6-fluoroimidazo[1,2-a]pyridine], the half-inhibitory concentration (IC50) was above 10 µM in test [1] and 0.01 to 1 µM in test [2].

With `CCc1cc(OC)cc(OCC(N)=O)c1-c1nc2c(O)cccn2c1Nc1c(C)cccc1C` [Compound A194, 2-[2-(Aminocarbonylmethoxy)-4-methoxy-6-ethylphenyl]-3-(2,6-dimethylphenylamino)-8-hydroxyimidazo[1,2-a]pyridine], the IC50 in test [1] is above 10 µM; in test [2] it was 1 to 10 µM.

`COc1cc(C)c(-c2nc3ccc(F)cn3c2Nc2c(C)cc(F)cc2C)c(OCC(N)=O)c1` [Compound A234, 2-[2-(Aminocarbonylmethoxy)-4-methoxy-6-methylphenyl]-3-(2,6-dimethyl-4-fluorophenyl-amino)-6-fluoroimidazo[1,2-a]pyridine]: the IC50 in test [1] lay within 1 to 10 µM; in test [2] it was 0.01 to 1 µM.

As for `Cc1cccc(C)c1Nc1c(-c2ccccc2OCC(N)=O)nc2c(C)cccn12` [Compound A8, 2-[2-(Aminocarbonylmethoxy)phenyl]-3-(2,6-di-methylphenylamino)-8-methylimidazo[1,2-a]-pyridine], the values for the half-inhibitory concentration (IC50) in test [1] and in test [2] were above 10 µM and 1 to 10 µM, respectively.

Turning to `Cc1cccc(Cl)c1Nc1c(-c2ccccc2OCC(N)=O)nc2cccc(C)n12` [Compound A10, 2-[2-(Aminocarbonylmethoxy)phenyl]-3-(2-chloro-6-methylphenylamino)-5-methyl-imidazo[1,2-a]pyridine], the IC50 lay in the range of 1 to 10 µM in test [1] and 0.01 to 1 µM in test [2].

As to `Cc1cccc(C)c1Nc1c(-c2ccc([N+](=O)[O-])cc2OCC(N)=O)nc2ccccn12` [Compound A179, 2-[2-(Aminocarbonylmethoxy)-4-nitrophenyl]-3-(2,6-dimethylphenylamino)imidazo[1,2-a]pyridine], the half-inhibitory concentration (IC50) in test [1] was above 10 µM; in test [2], 0.01 to 1 µM.

As for `COC(=O)c1cccc(C)c1Nc1c(-c2c(C)cc(OC)cc2OCC(N)=O)nc2ccc(F)cn12` [Compound A246, 2-[2-(Aminocarbonylmethoxy)-4-methoxy-6-methylphenyl]-3-(2-methyl-6-methoxycarbonyl-phenylamino)-6-fluoroimidazo[1,2-a]pyridine], the half-maximal inhibitory concentration (IC50) in test [1] was above 10 µM; in test [2], 1 to 10 µM.

As to `Cc1cccc2nc(-c3ccccc3OCC(N)=O)c(Nc3c(Cl)cccc3Cl)n12` [Compound A11, 2-[2-(Aminocarbonylmethoxy)phenyl]-3-(2,6-di-chlorophenylamino)-5-methylimidazo[1,2-a]-pyridine], the IC50 in test [1] lay within 1 to 10 µM; in test [2], 0.01 to 1 µM.

Turning to `COc1cc(C)c(-c2nc3ccc(F)cn3c2Nc2c(C)cccc2C)c(OCC(N)=O)c1` [Compound A204, 2-[2-(Aminocarbonylmethoxy)-4-methoxy-6-methylphenyl]-3-(2,6-dimethylphenylamino)-6-fluoroimidazo[1,2-a]pyridine], the IC50 in test [1] was in the range of 1 to 10 µM; in test [2] it was 0.01 to 1 µM.

For the molecule `CCc1cc(OC)cc(OCC(N)=O)c1-c1nc2ccc(F)cn2c1Nc1c(C)cc(F)cc1C` [Compound A235, 2-[2-(Aminocarbonylmethoxy)-4-methoxy-6-ethylphenyl]-3-(2,6-dimethyl-4-fluorophenyl-amino)-6-fluoroimidazo[1,2-a]pyridine], the IC50 in test [1] lay within 1 to 10 µM; in test [2], 0.01 to 1 µM.

As to `COc1cc(C)c(-c2nc3ccc(F)cn3c2Nc2c(Br)cc(C)cc2Br)c(OCC(N)=O)c1` [Compound A239, 2-[2-(Aminocarbonylmethoxy)-4-methoxy-6-methylphenyl]-3-(2,6-dibromo-4-methylphenyl-amino)-6-fluoroimidazo[1,2-a]pyridine], the IC50 in test [1] and in test [2] was 0.01 to 1 µM each time.

For the molecule `COc1cc(C)c(-c2nc3ccc(F)cn3c2Nc2c(F)cc(F)cc2F)c(OCC(N)=O)c1` [Compound A244, 2-[2-(Aminocarbonylmethoxy)-4-methoxy-6-methylphenyl]-3-(2,4,6-trifluorophenylamino)-6-fluoroimidazo[1,2-a]pyridine], the IC50 lay in the range of 1 to 10 µM in test [1] and 0.01 to 1 µM in test [2].

`CCc1cc(OC2CCCCO2)cc(OCC(N)=O)c1-c1nc2ccccn2c1Nc1c(C)cccc1C` (centres unmarked) [Compound A166, 2-[2-(Aminocarbonylmethoxy)-4-(tetra-hydropyran-2-yloxy)-6-ethylphenyl]-3-(2,6-dimethylphenylamino)imidazo[1,2-a]pyridine]: the half-maximal inhibitory concentration (IC50) was above 10 µM in test [1] and 0.01 to 1 µM in test [2].

Regarding `COc1ccc(-c2nc3ccccn3c2Nc2c(C)cccc2C)c(OCC(N)=O)c1` [Compound A14, 2-[2-(Aminocarbonylmethoxy)-4-methoxy-phenyl]-3-(2,6-dimethylphenylamino)imidazo-[1,2-a]pyridine], the IC50 in test [1] is above 10 µM; in test [2] it was 0.01 to 1 µM.

`CCc1cccc(OCC(N)=O)c1-c1nc2ccc(F)cn2c1Nc1c(Cl)cccc1Cl` [Compound A241, 2-[2-(Aminocarbonylmethoxy)-6-ethylphenyl]-3-(2,6-dichlorophenylamino)-6-fluoroimidazo-[1,2-a]pyridine]: the IC50 in test [1] and in test [2] was 0.01 to 1 µM each time.

Take `Cc1cccc(C)c1Nc1c(-c2ccccc2OCC(N)=O)nc2cccc(C)n12` [Compound A9, 2-[2-(Aminocarbonylmethoxy)phenyl]-3-(2,6-di-methylphenylamino)-5-methylimidazo[1,2-a]-pyridine]: the IC50 in test [1] was above 10 µM; in test [2], 0.01 to 1 µM.

On to `COc1cc(C)c(-c2nc3ccc(F)cn3c2Nc2c(C)cccc2C(F)(F)F)c(OCC(N)=O)c1` [Compound A236, 2-[2-(Aminocarbonylmethoxy)-4-methoxy-6-methylphenyl]-3-(2-methyl-6-trifluoromethyl-phenylamino)-6-fluoroimidazo[1,2-a]pyridine], for which the results for the 50% inhibitory concentration (IC50) in test [1] and in test [2] were 1 to 10 µM and 0.01 to 1 µM, respectively.

For the molecule `COc1cc(C)c(-c2nc3ccccn3c2Nc2c(C)cccc2C)c(OCC(N)=O)c1` [Compound A172, 2-[2-(Aminocarbonylmethoxy)-4-methoxy-6-methylphenyl]-3-(2,6-dimethylphenylamino)-imidazo[1,2-a]pyridine], the results for the IC50 in test [1] and in test [2] were above 10 µM and 0.01 to 1 µM, respectively.

On to `COc1cc(C)c(-c2nc3ccc(F)cn3c2Nc2c(F)cccc2C(F)(F)F)c(OCC(N)=O)c1` [Compound A242, 2-[2-(Aminocarbonylmethoxy)-4-methoxy-6-methylphenyl]-3-(2-fluoro-6-trifluoromethyl-phenylamino)-6-fluoroimidazo[1,2-a]pyridine], for which the IC50 in test [1] is 1 to 10 µM; in test [2], 0.01 to 1 µM.

In the case of `Cc1cc(C)c(-c2nc3ccccn3c2Nc2c(C)cccc2C)c(OCC(N)=O)c1` [Compound A168, 2-[2-(Aminocarbonylmethoxy)-4,6-dimethyl-phenyl]-3-(2,6-dimethylphenylamino)imidazo-[1,2-a]pyridine], the results for the IC50 in test [1] and in test [2] were above 10 µM and 0.01 to 1 µM, respectively.

`Cc1cccc(C)c1Nc1c(-c2c(Cl)cccc2OCC(N)=O)nc2ccc(F)cn12` [Compound A3, 2-[2-(aminocarbonylmethoxy)-6-chlorophenyl]-3-(2,6-dimethylphenylamino)-6-fluoroimidazo[1,2-a]pyridine]: the IC50 in test [1] was 1 to 10 µM; in test [2], 0.01 to 1 µM.

For the molecule `COc1ccc(-c2nc3ccccn3c2Nc2c(Cl)cccc2Cl)c(OCC(N)=O)c1` [Compound A16, 2-[2-(Aminocarbonylmethoxy)-4-methoxy-phenyl]-3-(2,6-dichlorophenylamino)imidazo-[1,2-a]pyridine], the IC50 in test [1] was 1 to 10 µM; in test [2], 0.01 to 1 µM.
